Measurements from publication PMC7878837, “Generation of Human-Induced Pluripotent Stem Cell-Derived Functional Enterocyte-Like Cells for Pharmacokinetic Studies” (Stem Cell Reports, 2021).
Like-named read-outs stand apart in the source and are kept apart here.

Key:
[1] = test system: RPChiPS771-derived enterocyte-like cells; assay: Real-time PCR of marker genes in hiPSC-derived enterocyte-like cells with or without VD3; format: cell-based, human
From the text: We then used M3-2 for maturation and evaluated the time-dependent expression of marker genes (Figure 4D). […] The expression levels of UDP glucuronosyltransferase 1-1 (UGT1A1) and various isoforms of P450 metabolizing enzymes (CYP2B6, CYP3A4, and CYP3A7) increased in the presence of VD3 compared with the controls without VD3. The expression levels of uptake transporter, SLC15A1, and efflux transporters, ABCB1 and ABCG2, were not affected by VD3.
Cells were fixed in 4% paraformaldehyde (Nacalai Tesque) in PBS, permeabilized with 0.1% Triton X-100 (Nacalai Tesque). The following antibodies were used: anti-CDX2 (1:100, BioGenex, San Ramon, CA, MU392A-UC), anti-VILLIN (1:100, BD Transduction Laboratories, San Diego, 610359), Alexa 568-conjugated, and Alexa 488-conjugated antibodies (1:1000, ThermoFisher).
RNA was extracted from iPS cells using the RNeasy micro-kit or QIAzol (Qiagen, Hilden, Germany) and then treated with DNase (Qiagen). For reverse transcription reactions, 2.5 µg RNA was reverse-transcribed using PrimeScript™ RT Master Mix (Takara Bio). For real-time PCR analysis, the mRNA expression was quantified with either TaqMan Primers and Probe or using SYBR Green on a StepOne Plus (Applied Biosystems, Foster City, CA, USA). β-ACTIN and GAPDH were used as internal controls. Target mRNA levels were expressed as fold-change against human adult small intestine (ASI; ASI=1). Primer details are listed in Supplemental Table S2.
Membrane integrities of human iPSCs derived intestine cells and Caco-2 cells cultured on CVM were measured after the medium change, using a Millicell ERS-2 (Epithelial Volt-Ohm Meter, Millipore).
Transcellular transport assays and measurement of CYP3A metabolite
In Figure 2 and Figure S1, for assessing the transporter activity of P-gp, time-dependent directional (B-to-

[2] = Permeability test (Papp) across hiPSC-derived enterocyte-like cell monolayer; format: in vitro ADME; settings: human, M3-2 medium, 37°C 2 h, n = 4
Method: The unlabeled compounds were analyzed by LC-MS/MS. […]
Permeability measurements
5 was determined as follows: the culture medium for hiPS-derived enterocyte-like cells was replaced with […]
started by replacing the FBS-containing HBSS buffer with substrate +/- inhibitor and incubated at 37°C for 2 h. The unlabeled compounds were analyzed by LC-MS/MS. The LC-MS/MS system consisted of a Waters ACQUITY UPLC (Waters Corporation, Milford, MA, USA) and a Waters Quattro Ultima mass spectrometer (Waters Corporation). The multiple reaction monitoring modes were used to monitor ions.
The detailed conditions for the analyses of the compounds are shown in Supplemental Table S1. The apparent membrane permeability coefficient (Papp) was calculated as follows. Papp ൌ ௗொௗ௧ ൈ ଵ஺஼బ Where dQ/dt is the amount of the compound permeated per unit of time, A is the surface area of insert membrane (0.33 cm2), and C0 is the initial compound concentration in the donor chamber. Differentiated cells showing TEER >30 Ω・cm2 were used. […]
100ൈቀ1െexp൫െα ൈP௔௣௣ ൯ቁ. Where α is the scaling factor. The fitting curve was calculated by nonlinear regression using Phoenix WinNonlin (Ver. 8.1, Certara, L.P.).

[3] = fraction of oral dose absorbed in humans; ref Amidon et al., 1988; Sjöberg et al., 2013; Skolnik et al., 2010; Sugano et al., 2002; Takenaka et al., 2016; Tavelin et al., 2003; Xiao et al., 2019; cited from earlier work
P-gp [4] = target: T1, P-gp (Homo sapiens, UniProt P08183); settings: digoxin 1.27 nM, absence of inhibitor
T1 sequence (P08183 whole entry): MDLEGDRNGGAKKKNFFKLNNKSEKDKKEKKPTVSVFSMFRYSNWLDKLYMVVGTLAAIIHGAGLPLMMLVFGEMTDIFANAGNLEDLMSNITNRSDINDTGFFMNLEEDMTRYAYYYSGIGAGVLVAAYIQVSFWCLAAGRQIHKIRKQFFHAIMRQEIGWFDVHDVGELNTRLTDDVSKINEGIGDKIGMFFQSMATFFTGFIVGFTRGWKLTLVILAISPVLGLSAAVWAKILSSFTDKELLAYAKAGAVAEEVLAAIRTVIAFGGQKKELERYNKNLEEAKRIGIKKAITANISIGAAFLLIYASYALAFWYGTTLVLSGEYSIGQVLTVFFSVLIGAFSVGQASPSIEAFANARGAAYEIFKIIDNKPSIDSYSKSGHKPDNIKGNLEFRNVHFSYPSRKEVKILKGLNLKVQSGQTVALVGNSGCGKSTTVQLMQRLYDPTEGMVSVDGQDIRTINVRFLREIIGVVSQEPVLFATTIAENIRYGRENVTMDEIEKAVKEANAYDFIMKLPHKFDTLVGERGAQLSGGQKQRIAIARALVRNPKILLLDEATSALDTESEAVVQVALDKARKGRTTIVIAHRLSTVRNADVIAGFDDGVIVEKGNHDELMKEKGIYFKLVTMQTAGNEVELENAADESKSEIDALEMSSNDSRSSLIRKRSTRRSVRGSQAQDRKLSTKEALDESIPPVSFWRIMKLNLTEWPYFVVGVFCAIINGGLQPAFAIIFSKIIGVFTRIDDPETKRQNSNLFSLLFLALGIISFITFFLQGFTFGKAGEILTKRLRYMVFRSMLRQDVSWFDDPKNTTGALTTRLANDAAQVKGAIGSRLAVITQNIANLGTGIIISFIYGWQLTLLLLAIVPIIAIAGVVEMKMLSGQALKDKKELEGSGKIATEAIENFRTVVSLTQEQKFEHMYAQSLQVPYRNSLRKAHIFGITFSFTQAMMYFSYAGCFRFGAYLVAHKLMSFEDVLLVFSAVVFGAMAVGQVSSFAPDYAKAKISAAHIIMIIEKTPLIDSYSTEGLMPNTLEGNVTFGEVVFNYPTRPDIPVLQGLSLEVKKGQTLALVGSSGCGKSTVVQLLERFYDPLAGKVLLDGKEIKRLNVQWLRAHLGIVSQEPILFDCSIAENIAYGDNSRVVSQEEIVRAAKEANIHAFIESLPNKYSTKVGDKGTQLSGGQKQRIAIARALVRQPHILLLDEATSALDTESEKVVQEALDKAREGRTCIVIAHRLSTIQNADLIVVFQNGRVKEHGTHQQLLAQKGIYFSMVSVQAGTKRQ

CYP3A4 = settings: in vitro; ref Andrew Williams et al., 2002; cited from earlier work
Caco-2 cells = test system: Caco-2 cells; parameters: method as in Artursson, 1990; settings: ref Artursson, 1990; cited from earlier work
P-gp [5] = target: T1, P-gp; assay: Rhodamine 123 permeability assay by fluorescence detection; format: in vitro ADME; parameters: transport activities of efflux transporters, P-gp and BCRP, in the ChiPS18-derived enterocyte-like cells; endogenous in cells; host or cells: ChiPS18 human iPSC-derived enterocyte-like cells on CVM inserts; settings: 10 μM, day 25, absence of Dex (condition #6, 7) or without Dex and DMSO (condition #5)
From the text: (§1) Flux ratio = Papp, basolateral to apical/Papp, apical to basolateral

P-gp [6] = test system: T2, P-gp; assay: as above; format: in vitro ADME, human; settings: human, not told, day 25, M3-2 with VD3 for the last 48 h (condition #8), read-out: rhodamine 123 flux ratio ([B-to-A transport]/[A-to-B transport])
T2 construct: transport activities of efflux transporters, P-gp and BCRP, in the ChiPS18-derived enterocyte-like cells; endogenous in cells; host or cells: ChiPS18 human iPSC-derived enterocyte-like cells on CVM inserts
From the text: as §1

[7] = D30 of differentiation, read-out: RPChiPS771 d30 Papp Mean ± SD
[8] = day 23 of differentiation, read-out: RPChiPS771 d23 Papp Mean ± SD

Structure (SMILES)	Papp at 2 h [2, 7]	Papp at 2 h [2, 8]	Human Fa [3]	further results
C=C1/C(=C\C=C2/CCC[C@]3(C)[C@@H]([C@H](C)CCCC(C)(C)O)CC[C@@H]23)C[C@@H](O)C[C@@H]1O [VD3, 1α,25-dihydroxyvitamin D3]				expression level of ALPI ([1]; presence of VD3, M3-2): upregulated; expression levels of UGT1A1, CYP2B6, CYP3A4 and CYP3A7 ([1]; presence of VD3 compared with controls without VD3, M3-2): increased; expression levels of SLC15A1, ABCB1 and ABCG2 ([1]; presence of VD3 vs without, M3-2): not affected
Nc1nc2c(ncn2COCCO)c(=O)[nH]1 [acyclovir]	10 ± 6.34 ×10⁻⁶ cm/s	3.62 ± 0.73 ×10⁻⁶ cm/s		
Cc1cc(=O)n(-c2ccccc2)n1C [antipyrine]	41.9 ± 2.2 ×10⁻⁶ cm/s	48.4 ± 1.7 ×10⁻⁶ cm/s	97%	
O=C(O)Cc1ccccc1Nc1c(Cl)cccc1Cl [diclofenac]	12 ± 1.2 ×10⁻⁶ cm/s	17.4 ± 0.6 ×10⁻⁶ cm/s		
C[C@H]1O[C@@H](O[C@H]2[C@@H](O)C[C@H](O[C@H]3[C@@H](O)C[C@H](O[C@H]4CC[C@@]5(C)[C@H](CC[C@@H]6[C@@H]5C[C@@H](O)[C@]5(C)[C@@H](C7=CC(=O)OC7)CC[C@]65O)C4)O[C@@H]3C)O[C@@H]2C)C[C@H](O)[C@@H]1O [digoxin]	5.18 ± 0.7 ×10⁻⁶ cm/s	6.15 ± 0.94 ×10⁻⁶ cm/s		directional transport (B-to-A vs A-to-B) (P-gp [4]): Basal-to-apical (B-to-A) transport exceeded apical-to-basal (A-to-B) transport
NC(N)=Nc1nc(CSCCC(N)=NS(N)(=O)=O)cs1 [famotidine]	7.42 ± 3.36 ×10⁻⁶ cm/s	5.05 ± 1.76 ×10⁻⁶ cm/s	38%	
NS(=O)(=O)c1cc2c(cc1Cl)NCNS2(=O)=O [hydrochlorothiazide]	9.5 ± 4.92 ×10⁻⁶ cm/s	2.1 ± 1.12 ×10⁻⁶ cm/s		
COCCc1ccc(OCC(O)CNC(C)C)cc1 (centres unmarked) [metoprolol]	25.1 ± 4.8 ×10⁻⁶ cm/s	22.6 ± 1.3 ×10⁻⁶ cm/s		
Cc1ncc2n1-c1ccc(Cl)cc1C(c1ccccc1F)=NC2 [midazolam]				formation of 1′-OH midazolam by CYP3A4 compared to CYP3A7 (CYP3A4): > 600 fold
CC(C)(C)NCC(O)COc1cccc2c1CC(O)C(O)C2 (centres unmarked) [nadolol]	8.96 ± 9.29 ×10⁻⁶ cm/s	2.83 ± 1.5 ×10⁻⁶ cm/s	33%	
CC(C)NCC(O)COc1cccc2ccccc12 (centres unmarked) [propranolol]	29.3 ± 2.5 ×10⁻⁶ cm/s	26 ± 2.7 ×10⁻⁶ cm/s		passive permeability (Caco-2 cells): 41.9 ×10⁻⁶ cm/s
CNC(=C[N+](=O)[O-])NCCSCc1ccc(CN(C)C)o1 [ranitidine]	8.3 ± 6.06 ×10⁻⁶ cm/s	3.94 ± 0.7 ×10⁻⁶ cm/s	50%	
COC(=O)c1ccccc1-c1c2ccc(=N)cc-2oc2cc(N)ccc12 [rhodamine 123]				rhodamine 123 flux ratio ([B-to-A transport]/[A-to-B transport]) (P-gp [5]): low; efflux ratio at 10 μM (P-gp [6]): < 2
O=C(O)c1cc(/N=N/c2ccc(S(=O)(=O)Nc3ccccn3)cc2)ccc1O [sulfasalazine]	2.65 ± 1.01 ×10⁻⁶ cm/s	1.02 ± 0.4 ×10⁻⁶ cm/s	13%	
CCN1CCCC1CNC(=O)c1cc(S(N)(=O)=O)ccc1OC (centres unmarked) [sulpiride]	8.39 ± 4.96 ×10⁻⁶ cm/s	3.15 ± 1.18 ×10⁻⁶ cm/s		
C[C@]12CC[C@H]3[C@@H](CCC4=CC(=O)CC[C@@]43C)[C@@H]1CC[C@@H]2O [testosterone]			100%	
